According to publication PMC12747935 (2025):
Each block holds one molecule with its values, some of them ahead of it.

Columns and labels:
Assay in all cases: ribozyme self-cleavage, PAGE with SYBR Gold
[1] = test system: Motif_9307 allosteric ribozyme (RNA, riboswitch) GGGCGUAGCCUGAUGAGACUUAUAAUUUUUGAUAUAGAAAUAAAUUACAGUAGUUACACGCAAUAACCGUUGGUCCAAAUAGUAUCCUGUCCUGAGCCGACCGAGUCGAAACGUGGUGAAAGCCACGUCGCUGCGCCGCAGCUGUGGAA; conditions: 100 mM KCl, 20 mM MgCl2; 30 mM HEPES pH 7.5, 25°C, 30 min; no change in cleavage
[2] = test system: ThiC-TPP allosteric ribozyme (bridge of four base pairs) (RNA, riboswitch) GGGCGUAGCCUGAUGAGACUCGGGGUGCCCUUCUGCGUGAAGGCUGAGAAAUACCCGUAUCACCUGAUCUGGAUAAUGCCAGCGUAGGGAAGUCGAAACGUGGUGAAAGCCACGUCGCUGCGCCGCAGCUGUGGAA; conditions: 100 mM KCl, 20 mM MgCl2, 30 mM HEPES pH 7.5, 25°C, 30 min
[3] = test system: NCU-TPP allosteric ribozyme (bridge of three base pairs) (RNA, riboswitch) GGGCGUAGCCUGAUGAGACUACGGGCGCUGUCGAAAGACAGCUGAGAUUGUACCGUGAUUACUCGAUCAAGUUAAUGCUUGCGUGAGAAACGUCGAAACGUGGUGAAAGCCACGUCGCUGCGCCGCAGCUGUGGAA; conditions: 100 mM KCl, 20 mM MgCl2, 30 mM HEPES pH 7.5, 25°C, 30 min, half-maximal cleavage change
[4] = test system: ThiC-TPP allosteric ribozyme (bridge of three base pairs) (RNA, riboswitch) GGGCGUAGCCUGAUGAGCUCGGGGUGCCCUUCUGCGUGAAGGCUGAGAAAUACCCGUAUCACCUGAUCUGGAUAAUGCCAGCGUAGGGAAGCGAAACGUGGUGAAAGCCACGUCGCUGCGCCGCAGCUGUGGAA; conditions: 100 mM KCl, 20 mM MgCl2; 30 mM HEPES pH 7.5, 25°C, 30 min; apparent; text gives only 1 to 3 μM for both bridges
[5] = test system: THEO allosteric ribozyme (RNA, aptamer) GGGCGUAGCCUGAUGAGCCCUAAUACCAGCCGAAAGGCCCUUGGCAGUAGAGCGAAACGUGGAAACACGUCGCUGCGAGCUGUGG; conditions: 100 mM KCl, 20 mM MgCl2, 30 mM HEPES pH 7.5, 25°C, 30 min; for binding: 100 μM compound

SMILES: CSCC[C@H](N)C(=O)O
binding [1]: no

SMILES: Cn1c(=O)[nH]c(=O)c2[nH]cnc21
binding ([5]; cleavage fraction 0.421 against 0.163 without ligand): yes

SMILES: Cn1c(=O)[nH]c2nc[nH]c2c1=O
binding ([5]; cleavage fraction 0.300 against 0.163 without ligand): weak

SMILES: Cn1c(=O)c2[nH]cnc2n(C)c1=O
apparent K D ([5]; apparent, half-maximal cleavage induction): 3100 ± 200 nM

SMILES: NC(=O)CC[C@H](N)C(=O)O
binding [1]: no

SMILES: N[C@@H](CCS)C(=O)O
binding [1]: no

SMILES: N[C@@H](Cc1cnc[nH]1)C(=O)O
binding ([2]; cleavage fraction 0.393 against 0.403 without ligand): no

SMILES: Nc1ncnc2c1ncn2[C@@H]1O[C@H](CSCC[C@H](N)C(=O)O)[C@@H](O)[C@H]1O
binding [1]: no

More lines, now with the values ahead:

binding [1]: no
SMILES: C[S+](CC[C@H](N)C(=O)O)C[C@H]1O[C@@H](n2cnc3c(N)ncnc32)[C@H](O)[C@@H]1O (stereo partly shown)

binding ([2]; cleavage fraction 0.235 against 0.403 without ligand): yes
SMILES: Cc1ncc(C[n+]2csc(CCO)c2C)c(N)n1

apparent K D [3]: 2400 ± 1400 nM
K D [4]: 3000 ± 1100 nM
apparent K D ([2]; apparent, half-maximal cleavage inhibition): 1200 ± 200 nM
SMILES: Cc1ncc(C[n+]2csc(CCOP(=O)(O)OP(=O)(O)O)c2C)c(N)n1
